From patent US11001573B2, “Citric acid derivative” (ADABIO CO., LTD., priority 2015, dated 2021)

Test system: Wistar male rats given galactosamine hydrochloride
Experiment: Test on liver dysfunction suppression effect (galactosamine hydrochloride-induced liver disorder, plasma AST/ALT)
Assay type: in vivo, rat
Conditions: oral 7 days, 6 g/kg of 6 mg/mL solution, galactosamine hydrochloride 750 mg/kg i.p. on day 7, blood on day 9, vs control administration group (p<0.05, Dunnett)
Protocol: (Preparation of Administration Products for Animal Test)
(1) Preparation of Compound I Administration Product
An 8 N sodium hydroxide aqueous solution was added dropwise to 100 mL of roughly purified solution I in small amounts, while checking the pH with a pH meter, to adjust the acid-base property of the solution to pH 6.5. Further, the mixture was diluted with a solvent.
(2) Preparation of Compound V Administration Product
An 8 N sodium hydroxide aqueous solution was added dropwise to 100 mL of roughly purified solution I in small amounts, while checking the pH with a pH meter, to adjust the acid-base property of the solution to pH 8.6, followed by heating at 121° C. for 30 minutes, and further the mixture was diluted with a solvent (the pH of the solution after the heating changed to about pH 6.2 due to acid formation by hydrolysis reaction).
(Test on Liver Dysfunction Suppression Effect)
The aforementioned administration products (1) and (2) were dissolved in a solvent composed of oligosaccharide, cyclic oligosaccharide, and D-sorbitol to give a solution, and the final concentration of compounds I and V dissolved in the solution administered was adjusted to 6 mg/mL. The solution in an amount of 6 g/kg as calculated from specific gravity of the solution was orally administered to 8 week-old Wistar male rats (CHARLES RIVER LABORATORIES JAPAN, INC.) for 7 days with free access to commercially available solid feed and tap water. The solvent free from the aforementioned compounds (1) and (2) in an amount of 6 g/kg was orally administered to the control animals for 7 days. On the 7th day after the start of administration, a 750 mg/kg dose of galactosamine hydrochloride (Wako Pure Chemical Industries, Ltd.) was intraperitoneally administered to each of the animals to which the control and compounds I and V were administered, and the abdomen was opened on the 9th day after the start of administration under pentobarbital anesthesia (50 mg/kg), to collect heparinized blood from the abdominal aorta. The obtained blood was separated into blood plasma, and the AST and ALT values thereof were measured by the JSCC standardization-corresponding method. In FIG. 14, the results are shown as average+standard deviation (the number of animals of each group was 20). Symbol * represents a significant difference (p<0.05) from the control group, which was tested by the Dunnett's test after the one-way analysis of variance.

O=C(O)CC(C(=O)O)N1C(=O)CC(O)(CC(=O)O)C1=O (stereo not shown) [compound I]
ALT value in blood plasma: significantly low | AST value in blood plasma: significantly low

O=C(O)CC(NC(=O)CC(O)(CC(=O)O)C(=O)O)C(=O)O (stereo not shown) [compound V]
ALT value in blood plasma: significantly low | AST value in blood plasma: significantly low
